Measured values as given in PMC11671526, “β-caryophyllene sensitizes hepatocellular carcinoma cells to chemotherapeutics and inhibits cell malignancy through targeting MAPK signaling pathway” (Frontiers in Pharmacology, 2024).
Where two headings read alike, the source gives them in different places.

Experiments:
Format in all cases: cell-based, human
SMMC-7721 cells [1] = test: Annexin V-FITC/PI cell apoptosis assay (flow cytometry); settings: SMMC-7721, 48 h; BCP 150 µM, DOXL 0.2 µM, DOXH 1.5 µM, DDPL 5 µM, DDPH 30 µM
Description: (§1) The cell apoptosis assay was performed as previously described ([Zhong et al., 2019]; [Farooq et al., 2023]). […] Ltd., Nanjing, China). The cells were analyzed using flow cytometer (BECKMAN COULTER, cytoFLEX, United States).

HepG2 cells [2] = test: as above; settings: HepG2, 48 h; BCP 150 µM, DOXL 0.2 µM, DOXH 1.5 µM, DDPL 5 µM, DDPH 30 µM
Description: as §1

HL-7702 cells = test: as above; settings: HL-7702, 48 h, BCP 150 µM, DOXL 0.2 µM, DOXH 1.5 µM, DDPL 5 µM, DDPH 30 µM
Description: as §1

SMMC-7721 cells [3] = test: CCK8 cell viability assay; settings: for IC50: SMMC-7721, 48 h, individual treatment, read-out: IC50 (half maximal inhibitory concentration); for effect of combination with BCP (isobologram analysis): SMMC-7721, BCP 25-150 μM combined with DOX or DDP
Description: (§2) Cell viability assay using the CCK8 reagent (Bimake, Shanghai, China) was conducted according to the manufacturer’s instructions. The cell proliferation data were used to calculate the cell viability. Briefly, HepG2, SMMC-7721, and HL-7702 cells with a density of 5 × 10^3 cells/well were seeded into each well of 96-well plates and incubated overnight. […] After 48 h, 10 µL of CCK8 reagent was added to each well, followed by 2 h incubation at 37°C and measurement of absorbance at 450 nm using a microplate reader (Molecular Devices, LLC.). […] The effects of the combinatorial inhibition were visualized by isobologram analyses ([Tallarida, 2001]). […] A line was drawn to link the two IC50 points. […] The dots above, on, or below the line indicate the “antagonistic,” “additive” and “synergistic” effects, respectively. The same method was used to obtain the CI value for the cotreatment of BCP and DDP.

HepG2 cells [4] = test: CCK8 cell viability assay; settings: for IC50: HepG2, 48 h, individual treatment, read-out: IC50 (half maximal inhibitory concentration); for effect of combination with BCP (isobologram analysis): HepG2, BCP 25-150 μM combined with DOX or DDP
Description: as §2

[5] = tested on: HL-7702 normal liver cells; test: CCK8 cell viability assay; settings: for IC50: HL-7702, 48 h, individual treatment, read-out: IC50 (half maximal inhibitory concentration); for effect of combination with BCP (isobologram analysis): HL-7702, BCP 25-150 μM combined with DOX or DDP
Description: as §2

[6] = SMMC-7721, cotreatment with 25 μM BCP
[7] = SMMC-7721, cotreatment with 50 μM BCP
[8] = SMMC-7721, cotreatment with 75 μM BCP
[9] = SMMC-7721, cotreatment with 100 μM BCP
[10] = SMMC-7721, cotreatment with 150 μM BCP
[11] = HepG2, cotreatment with 25 μM BCP
[12] = HepG2, cotreatment with 50 μM BCP
[13] = HepG2, cotreatment with 75 μM BCP
[14] = HepG2, cotreatment with 100 μM BCP
[15] = HepG2, cotreatment with 150 μM BCP

Structure (SMILES) | apoptotic rate (SMMC-7721 cells [1]) | apoptotic rate (HepG2 cells [2]) | effect of combination with BCP (isobologram analysis) (SMMC-7721 cells [3]) | combination index (CI) (SMMC-7721 cells [3]; [6]) | combination index (CI) (SMMC-7721 cells [3]; [7]) | combination index (CI) (SMMC-7721 cells [3]; [8]) | combination index (CI) (SMMC-7721 cells [3]; [9]) | combination index (CI) (SMMC-7721 cells [3]; [10]) | effect of combination with BCP (isobologram analysis) (HepG2 cells [4]) | combination index (CI) (HepG2 cells [4]; [11]) | combination index (CI) (HepG2 cells [4]; [12]) | combination index (CI) (HepG2 cells [4]; [13]) | combination index (CI) (HepG2 cells [4]; [14]) | combination index (CI) (HepG2 cells [4]; [15]) | effect of combination with BCP (isobologram analysis) [5] | other results
N.N.[Cl][Pt][Cl] [DDP, cisplatin] | 7.67% ± 0.46% | 11.40% ± 0.52% | synergistic | 0.59 | 0.57 | 0.52 | 0.51 | 0.58 | synergistic | 0.74 | 0.71 | 0.66 | 0.68 | 0.88 | additive | apoptotic rate (HL-7702 cells; listed as DDPH): 28.52% ± 1%; apoptotic rate (HL-7702 cells; listed as DDPL): 17.86% ± 0.69%; IC50 (SMMC-7721 cells [3]): 33.7 ± 1.43 µM; fold lower IC50 in cotreatment than in treatment alone (SMMC-7721 cells [3]; SMMC-7721, cotreatment with 150 μM BCP vs DOX or DDP alone): over 9 fold; IC50 (HepG2 cells [4]): 27.4 ± 2.59 µM; fold lower IC50 in cotreatment than in treatment alone (HepG2 cells [4]; HepG2, cotreatment with 150 μM BCP vs DOX or DDP alone): over 9 fold; IC50 [5]: 11.5 ± 0.82 µM; combination index (CI) ([5]; HL-7702, cotreatment with 25 μM BCP): 1.04; combination index (CI) ([5]; HL-7702, cotreatment with 50 μM BCP): 0.95; combination index (CI) ([5]; HL-7702, cotreatment with 75 μM BCP): 1.01; combination index (CI) ([5]; HL-7702, cotreatment with 100 μM BCP): 0.89; combination index (CI) ([5]; HL-7702, cotreatment with 150 μM BCP): 0.92; fold reduction of IC50 in cotreatment from individual treatment ([5]; HL-7702, cotreatment with 150 μM BCP vs DOX or DDP alone): less than 1.5 fold
COc1cccc2c1C(=O)c1c(O)c3c(c(O)c1C2=O)C[C@@](O)(C(=O)CO)C[C@@H]3O[C@H]1C[C@H](N)[C@H](O)[C@H](C)O1 [DOX, doxorubicin] | 8.74% ± 1.32% | 13.40% ± 0.65% | synergistic | 0.48 | 0.53 | 0.50 | 0.55 | 0.65 | synergistic | 0.53 | 0.58 | 0.56 | 0.65 | 0.85 | additive | apoptotic rate (HL-7702 cells; listed as DOXH): 33.83% ± 1.27%; apoptotic rate (HL-7702 cells; listed as DOXL): 13.04% ± 0.57%; IC50 (SMMC-7721 cells [3]; Homo sapiens): 1.76 ± 0.13 µM; IC50 (HepG2 cells [4]; Homo sapiens): 1.99 ± 0.2 µM; IC50 ([5]; Homo sapiens, L02): 0.82 ± 0.09 µM
